Data on 27 compounds can be found in patent publication US9612237B2, “Ritalinic acid immunoassay” (Randox Laboratories Limited, priority 2013, dated 2017).

In assay [1] the test system is antibodies of the invention (antisera generated in response to immunogen of Example 5). The assay is described as follows: Competitive chemiluminescent biochip immunoassay, antiserum raised against immunogen of Example 5, HRP conjugate of Example 6. It counts as binding, sheep. The settings on record: for Cross-reactivity / IC50: biochip; for Cross-reactivity: based on 100% specificity to RA; for IC50: calibrator concentration which produces 50% B/B0; for No measurable CR at given concentration: value is the concentration at which no cross-reactivity was exhibited.

Assay [2] concerns antisera generated in response to immunogen of Example 11. The assay is described as follows: Competitive chemiluminescent biochip immunoassay, antisera raised against immunogen of Example 11, conjugate of Example 12. In kind it is binding, sheep. The settings on record: for IC50 / % cross reactivity: biochip; for % cross reactivity: relative to methylphenidate = 100.
Assay [3] deals with antibodies of the invention (antisera generated in response to immunogen of Example 5). Kind of assay: ELISA, antiserum raised against immunogen of Example 5, HRP conjugate of Example 6. It counts as binding, sheep. The note with it: for Ave OD: absorbance at 450 nm; for % CR: relative to ritalinic acid = 100. The procedure: Immunogen (2 mg) from Examples 5 or 11 was prepared in PBS, mixed at a ratio of 50% immunogen in PBS to 50% Freund's Complete Adjuvant (Sigma, Product Number F5881) and emulsified by repeatedly passing the mixture through a tip on the end of a 1 ml syringe, until semi-solid. The emulsified mixture (1 ml) was injected intramuscularly into the sheep (the primary immunisation dose). Further injections (boosts) were prepared (1 mg of immunogen is prepared in PBS and mixed at a ratio of 50% immunogen PBS/50% Freunds Incomplete adjuvant, Sigma, Product Number—F5506) and injected (1 ml) intramuscularly at monthly intervals. Serum was sampled monthly by collection of whole blood from the jugular vein for evaluation of the antibody titre. Prior to immobilisation on a solid substrate (for example, the biochip), the serum was purified using caprylic acid/ammonium sulphate precipitation, as described for example in Chapter 4 of “Making and Using Antibodies—A Practical Handbook” 2nd Edition, edited by G C Howard and M R Kaser, CRC Press.
The ELISA data provided below correspond to the same immunogen, antibody and tracer combination used to generate the Biochip standard curves, i.e. antibodies of the invention (antisera generated in response to immunogen of Example 5) and (2-(4-aminophenyl)-2-(piperidin-2-yl) acetic acid conjugated to HRP (Example 6). The assay methodology used to generate the ELISA data was standard ELISA methodology. Briefly, a microtitre plate was coated with Ig fraction of the antiserum produced at 5 μg/ml, prepared in Tris buffer, pH8.5. The coated plate was simultaneously incubated with calibrator/sample (from 0 ng/ml-80 ng/ml) and HRP conjugate at ⅛K dilution. After washing and substrate addition, absorbances were read at 450 nm. The absorbance in each well was inversely proportional to the concentration of ritalinic acid or methylphenidate hydrochloride in the calibrator/sample added to that well.

In assay [4] the test system is Abcam polyclonal sheep antibody to MPH. The note with it: Abcam antibody raised using MPH-BTG as the immunogen; cited from earlier work.
[5] abbreviates: Methylphenidate calibrator 78.13 ng/ml.
The mark [6] stands for this setting: Methylphenidate calibrator 156.25 ng/ml.
The mark [7] stands for this setting: Methylphenidate calibrator 312.50 ng/ml.
The mark [8] stands for this setting: Methylphenidate calibrator 625 ng/ml.
Where [9] appears, read: Methylphenidate calibrator 1,250.00 ng/ml.
The mark [10] stands for this setting: Methylphenidate calibrator 2,500.00 ng/ml.
The mark [11] stands for this setting: Methylphenidate calibrator 5,000.00 ng/ml.
The mark [12] stands for this setting: Methylphenidate calibrator 10,000.00 ng/ml.
[13] abbreviates: value is the concentration at which no cross-reactivity was exhibited.

Values after ≈ are worked out from the molar mass of the structure shown. Counter-ions that a name gives are not always drawn. Like-named read-outs stand apart in the source and are kept apart here. Bounds are passed on as bounds.

Consider `COC(=O)C(c1ccccc1)C1CCCCN1` (stereo not shown) [Methylphenidate, methylphenidate], for which the B/B0 % in assay [1] (setting [5]) amounted to 87%; in assay [1] (setting [6]), 81%; in assay [1] (setting [7]), 75%; in assay [1] (setting [8]), 66%; in assay [1] (setting [9]) it was 51%; in assay [1] (setting [10]) it was 34%. The B/B0 % in assay [1] (setting [11]) was found to be 23%; in assay [1] (setting [12]) it was 16%. The RLU in assay [1] (setting [5]) is reported as 3878 RLU; in assay [1] (setting [6]) it was 3604 RLU; in assay [1] (setting [7]), 3319 RLU; in assay [1] (setting [8]), 2912 RLU; in assay [1] (setting [9]), 2244 RLU; in assay [1] (setting [10]) it was 1517 RLU. For the same compound, the values for the RLU in assay [1] (setting [11]) and in assay [1] (setting [12]) were 1015 RLU and 697 RLU, respectively. Besides, the Cross-reactivity result in assay [1] was “Cross-reactivity 0.4%”. The IC50 result in assay [1] was “IC50 = 1,323.50 ng/ml”; in assay [2], 2.6 ng/mL (≈ 0.0111 µM). The “% cross reactivity” value in assay [2] amounted to 100%.

With `COC(=O)C(c1ccccc1)C1CCCCN1` (stereo not shown) [Methylphenidate Hydrochloride], the IC50 in assay [3] is given as >>>80 ng/ml. The “Ave OD” value in assay [3] (calibrator 1.25 ng/ml) was 1.677; in assay [3] (calibrator 2.5 ng/ml), 1.644; in assay [3] (calibrator 5 ng/ml) it was 1.635; in assay [3] (calibrator 10 ng/ml), 1.563; in assay [3] (calibrator 20 ng/ml), 1.476; in assay [3] (calibrator 40 ng/ml) it was 1.402. In assay [3] (calibrator 80 ng/ml), the “Ave OD” value stood at 1.311. In addition, the B/Bo is 101.9 in assay [3] (calibrator 1.25 ng/ml); 99.9 in assay [3] (calibrator 2.5 ng/ml); 99.4 in assay [3] (calibrator 5 ng/ml); 95.0 in assay [3] (calibrator 10 ng/ml); 89.7 in assay [3] (calibrator 20 ng/ml); 85.2 in assay [3] (calibrator 40 ng/ml). Also, the B/Bo in assay [3] (calibrator 80 ng/ml) stood at 79.7. For the same compound, the “% CR” value in assay [3] is reported as <<<10.5%.

Regarding `CNCCC[C@@]1(c2ccc(F)cc2)OCc2cc(C#N)ccc21` [N-desmethylescilatopram], the “No measurable CR at given concentration” value in assay [1] amounted to 10 µg/mL.

As to `CC(C)Cc1ccc(C(C)C(=O)O)cc1` (stereo not shown) [Ibuprofen], the “No measurable CR at given concentration” value in assay [1] stood at 1000 µg/mL. The “Concentration exhibiting no cross-reactivity” value in assay [2] (value is the concentration at which no cross-reactivity was exhibited, listed as ibuprofen) is 1000 µg/mL.

For the compound `COc1cccc(C2(O)CCCCC2CN(C)C)c1` (stereo not shown) [Tramadol], the “No measurable CR at given concentration” value in assay [1] was 10 µg/mL.

Consider `O=C(O)c1ccccc1O` [Salicylic acid], for which, in assay [1], the “No measurable CR at given concentration” value came to 1000 µg/mL. Besides, in assay [2] (setting [13]), the “Concentration exhibiting no cross-reactivity” value was found to be 1000 µg/mL.

On to `CCOC(=O)C(c1ccccc1)C1CCCCN1` (stereo not shown) [Ethylphenidate], for which the “No measurable CR at given concentration” value in assay [1] was found to be 100 µg/mL.

In the case of `N[C@H]1CC[C@@H](c2ccc(Cl)c(Cl)c2)c2ccccc21` [Norsertraline], in assay [1], the “No measurable CR at given concentration” value turned out to be 10 µg/mL.

For `CCO[C@@H]1O[C@H](C(=O)O)[C@@H](O)[C@H](O)[C@H]1O` [Ethyl glucuronide], the “No measurable CR at given concentration” value in assay [1] came out at 100 µg/mL. In addition, in assay [2] (setting [13]), the “Concentration exhibiting no cross-reactivity” value came out at 100 µg/mL.

Dextromorphan: the “No measurable CR at given concentration” value in assay [1] was 10 µg/mL.

On to `O=C(O)C(c1ccccc1)C1CCCCN1` (stereo not shown) [RA, ritalinic acid], for which the B/B0 % in assay [1] (RA calibrator 3.91 ng/ml) is listed as 65%; in assay [1] (RA calibrator 7.81 ng/ml), 40%; in assay [1] (RA calibrator 15.63 ng/ml), 31%; in assay [1] (RA calibrator 31.25 ng/ml), 18%; in assay [1] (RA calibrator 62.50 ng/ml), 11%; in assay [1] (RA calibrator 125.00 ng/ml), 6%. Further, the figures for the B/B0 % in assay [1] (RA calibrator 250.00 ng/ml) and in assay [1] (RA calibrator 500.00 ng/ml) were 4% and 2%, respectively. For the same compound, the RLU in assay [1] (RA calibrator 3.91 ng/ml) was determined as 3459 RLU; in assay [1] (RA calibrator 7.81 ng/ml), 2552 RLU; in assay [1] (RA calibrator 15.63 ng/ml), 1980 RLU; in assay [1] (RA calibrator 31.25 ng/ml) it was 1111 RLU; in assay [1] (RA calibrator 62.50 ng/ml) it was 677 RLU; in assay [1] (RA calibrator 125.00 ng/ml), 374 RLU. Also, the values for the RLU in assay [1] (RA calibrator 250.00 ng/ml) and in assay [1] (RA calibrator 500.00 ng/ml) were 247 RLU and 134 RLU, respectively. The Cross-reactivity result in assay [1] was “Cross-reactivity 100%”; in assay [4], “less than 0.9%”. The IC50 result was “IC50 = 5.21 ng/ml,” in assay [1], 260 ng/mL (≈ 1.19 µM) in assay [2] and 8.41 ng/mL in assay [3]. The “% cross reactivity” value was determined as 1% in assay [2] and 1.0% in assay [2] (listed as ritalinic acid). Moreover, the “Ave OD” value amounted to 1.346 in assay [3] (calibrator 1.25 ng/ml); 1.169 in assay [3] (calibrator 2.5 ng/ml); 0.987 in assay [3] (calibrator 5 ng/ml); 0.751 in assay [3] (calibrator 10 ng/ml); 0.584 in assay [3] (calibrator 20 ng/ml); 0.424 in assay [3] (calibrator 40 ng/ml). Besides, the “Ave OD” value in assay [3] (calibrator 80 ng/ml) came to 0.311. Moreover, the B/Bo in assay [3] (calibrator 1.25 ng/ml) came to 82.4; in assay [3] (calibrator 2.5 ng/ml), 71.5; in assay [3] (calibrator 5 ng/ml) it was 60.4; in assay [3] (calibrator 10 ng/ml), 46.0; in assay [3] (calibrator 20 ng/ml), 35.7; in assay [3] (calibrator 40 ng/ml), 26.0. In addition, the B/Bo in assay [3] (calibrator 80 ng/ml) is recorded as 19.0. For the same compound, in assay [3], the “% CR” value is on record as 100%.

Turning to `CNCCC=C1c2ccccc2CCc2ccccc21` [Nortriptylene], the “No measurable CR at given concentration” value in assay [1] came to 10 µg/mL.

Take `Clc1cccc(N2CCNCC2)c1` [mCPP]: the “No measurable CR at given concentration” value in assay [1] stood at 10 µg/mL.

`CNCCC(Oc1ccc(C(F)(F)F)cc1)c1ccccc1` (stereo not shown) [fluoxetine]: the “No measurable CR at given concentration” value in assay [1] was 100 µg/mL.

Take `O=C(O)[C@H]1O[C@@H](OCC(Cl)(Cl)Cl)[C@H](O)[C@@H](O)[C@@H]1O` [urochloralic acid]: the “Concentration exhibiting no cross-reactivity” value in assay [2] (setting [13]) is 100 µg/mL.

`CCCC(C)(COC(N)=O)COC(N)=O` [meprobamate]: the “Concentration exhibiting no cross-reactivity” value in assay [2] (setting [13]) came to 10 µg/mL.

Take `CN1CCCC1c1cccnc1` (single isomer, unassigned; (-)) [(−)-nicotine]: the “Concentration exhibiting no cross-reactivity” value in assay [2] was 22 µg/mL.

For `CC(=O)Nc1ccc(O)cc1` [Acetoaminophen], the “No measurable CR at given concentration” value in assay [1] is 1000 µg/mL. Further, the “Concentration exhibiting no cross-reactivity” value in assay [2] (setting [13]) is 2500 µg/mL.

Turning to `CNCCC=C1c2ccccc2CCc2ccccc21` [nortriptyline HCl], the “Concentration exhibiting no cross-reactivity” value in assay [2] stood at 10 µg/mL.

As for `CN(C)CCC[C@]1(c2ccc(F)cc2)OCc2cc(C#N)ccc21.O=C(O)C(=O)O` [(R)-citalopram oxalate], the “Concentration exhibiting no cross-reactivity” value in assay [2] (setting [13]) stood at 1.5 µg/mL.

Turning to `CCc1nn(CCCN2CCN(c3cccc(Cl)c3)CC2)c(=O)n1CC` [etoperidone HCl], the “Concentration exhibiting no cross-reactivity” value in assay [2] (setting [13]) is 0.4 µg/mL.

In the case of `O=C(Oc1ccccc1C(=O)O)c1ccccc1O` [salsalate], in assay [2] (setting [13]), the “Concentration exhibiting no cross-reactivity” value was determined as 250 µg/mL.

Consider `O=C(CCCN1CCC(O)(c2ccc(Cl)cc2)CC1)c1ccc(F)cc1` [Haloperidol], for which the “No measurable CR at given concentration” value in assay [1] turned out to be 10 µg/mL. In addition, the “Concentration exhibiting no cross-reactivity” value in assay [2] (setting [13]) came out at 10 µg/mL.

With `CN1C(=O)CN=C(c2ccccc2)c2cc(Cl)ccc21` [diazepam], the “Concentration exhibiting no cross-reactivity” value in assay [2] turned out to be 3 µg/mL.

In the case of `O=C1Nc2ccc(Cl)cc2C(c2ccccc2Cl)=NC1O` (stereo not shown) [lorazepam], the “Concentration exhibiting no cross-reactivity” value in assay [2] (setting [13]) came out at 3 µg/mL.

As for `Nc1ccc(C(=O)O)c(O)c1` [4-aminosalicylic acid], in assay [2] (setting [13]), the “Concentration exhibiting no cross-reactivity” value was 250 µg/mL.

Consider `CN1C(=O)C(O)N=C(c2ccccc2)c2cc(Cl)ccc21` (stereo not shown) [temazepam], for which the “Concentration exhibiting no cross-reactivity” value in assay [2] (setting [13]) amounted to 3 µg/mL.
